Laboratory results from PMC6422671 (British Journal of Clinical Pharmacology, 2019).

Columns and labels:
[1] = system: myeloperoxidase; set-up: method as in E Michaëlsson et al., manuscript in preparation; conditions: in vitro, unpublished; ref E Michaëlsson et al., manuscript in preparation; cited from earlier work
[2] = system: serum uric acid; test: Serum uric acid (urate), exploratory pharmacodynamic outcome; table data mean (standard deviation); type: in vivo, healthy men; conditions: for decrease in mean serum uric acid concentration: 48 hours after dosing
Source text: The primary objective of the study was to evaluate the safety and tolerability of AZD4831 in healthy volunteers.
Data are mean (standard deviation).

[3] = system: CYP3A4; set-up: method as in unpublished data; conditions: in vitro; ref unpublished data; cited from earlier work

SMILES: C[C@@H](N)c1cc(Cl)ccc1Cn1c(=S)[nH]c(=O)c2[nH]ccc21 [AZD4831]
- inhibition of oxidation of xanthine and uric acid by myeloperoxidase [1]: inhibits
- Urate ([2]; 5 mg fasted, 24 h): 335.1 (75.2) µmol L^–1
- Urate ([2]; 5 mg fasted, 48 h): 293.2 (64.0) µmol L^–1
- Urate ([2]; 5 mg fasted, follow up): 326.3 (84.2) µmol L^–1
- Urate ([2]; 15 mg fasted, 24 h): 364.7 (35.3) µmol L^–1
- Urate ([2]; 15 mg fasted, 48 h): 331.6 (30.7) µmol L^–1
- Urate ([2]; 15 mg fasted, 72 h): 355.7 (25.4) µmol L^–1
- Urate ([2]; 15 mg fasted, 96 h): 366.5 (25.3) µmol L^–1
- Urate ([2]; 15 mg fasted, 120 h): 370.8 (40.4) µmol L^–1
- Urate ([2]; 15 mg fasted, follow up): 366.3 (47.1) µmol L^–1
- Urate ([2]; 45 mg fasted, 24 h): 361.7 (111.9) µmol L^–1
- Urate ([2]; 45 mg fasted, 48 h): 339.8 (113.0) µmol L^–1
- Urate ([2]; 45 mg fasted, 72 h): 362.1 (111.6) µmol L^–1
- Urate ([2]; 45 mg fasted, 96 h): 366.3 (112.8) µmol L^–1
- Urate ([2]; 45 mg fasted, 120 h): 382.6 (93.3) µmol L^–1
- Urate ([2]; 45 mg fasted, follow up): 397.6 (112.6) µmol L^–1
- Urate ([2]; 45 mg fed, 24 h): 296.4 (62.8) µmol L^–1
- Urate ([2]; 45 mg fed, 48 h): 283.0 (57.0) µmol L^–1
- Urate ([2]; 45 mg fed, 72 h): 313.2 (47.1) µmol L^–1
- Urate ([2]; 45 mg fed, 96 h): 316.0 (47.3) µmol L^–1
- Urate ([2]; 45 mg fed, 120 h): 316.5 (67.1) µmol L^–1
- Urate ([2]; 45 mg fed, follow up): 314.0 (77.9) µmol L^–1
- Urate ([2]; 135 mg fasted, 24 h): 344.3 (18.6) µmol L^–1
- Urate ([2]; 135 mg fasted, 48 h): 311.3 (18.6) µmol L^–1
- Urate ([2]; 135 mg fasted, 72 h): 339.2 (13.9) µmol L^–1
- Urate ([2]; 135 mg fasted, 96 h): 346.2 (25.0) µmol L^–1
- Urate ([2]; 135 mg fasted, 120 h): 365.9 (42.1) µmol L^–1
- Urate ([2]; 135 mg fasted, follow up): 370.3 (31.4) µmol L^–1
- decrease in mean serum uric acid concentration ([2]; 135 mg, 95% CI 29.15, 114.39, mean predose 383.0 (SD 47.5)): 71.77 µmol/L
- Urate ([2]; 405 mg fasted, 24 h): 262.8 (65.4) µmol L^–1
- Urate ([2]; 405 mg fasted, 48 h): 244.6 (51.2) µmol L^–1
- Urate ([2]; 405 mg fasted, 72 h): 256.1 (44.7) µmol L^–1
- Urate ([2]; 405 mg fasted, 96 h): 289.3 (46.2) µmol L^–1
- Urate ([2]; 405 mg fasted, 120 h): 307.2 (50.9) µmol L^–1
- Urate ([2]; 405 mg fasted, follow up): 322.2 (59.1) µmol L^–1
- decrease in mean serum uric acid concentration ([2]; 405 mg, 95% CI 58.90, 109.94, mean predose 329.0 (SD 54.2)): 84.42 µmol/L
- involvement of CYP3A4 in metabolism [3]: involved in the metabolism
